Assay results: the NIST ThermoML archive (doi:10.1016/j.jct.2006.09.014)
“And” between values parts separate entries of the source, which are not always exact repeats. Identical values can stand only once.

Conditions: Liquid; for mass density: Bellows volumetry; for vapor or sublimation pressure: Closed cell (Static) method

CCCC [butane]
Conditions | mass density [kg/m3]
280 K, 145 kPa | 594.1
280 K, 168.4 kPa | 594.15
280 K, 191.6 kPa | 594.23
280 K, 215 kPa | 594.24
280 K, 238.3 kPa | 594.32
280 K, 261.7 kPa | 594.34
280 K, 285 kPa | 594.4
300 K, 271.4 kPa | 571.6
300 K, 294.8 kPa | 571.61
300 K, 318.1 kPa | 571.67
300 K, 341.4 kPa | 571.69
300 K, 364.8 kPa | 571.72
300 K, 388.1 kPa | 571.76
300 K, 411.5 kPa | 571.8
320 K, 469.7 kPa | 547.03
320 K, 493 kPa | 547.12
320 K, 516.3 kPa | 547.15
320 K, 539.6 kPa | 547.22
320 K, 563 kPa | 547.25
320 K, 586.3 kPa | 547.25
320 K, 609.6 kPa | 547.3
340 K, 763.1 kPa | 520.53
340 K, 786.4 kPa | 520.62
340 K, 809.7 kPa | 520.68
340 K, 833 kPa | 520.72
340 K, 856.3 kPa | 520.82
340 K, 879.7 kPa | 520.9
340 K, 903 kPa | 520.96
360 K, 1176.4 kPa | 490.56
360 K, 1199.7 kPa | 490.68
360 K, 1223 kPa | 490.79
360 K, 1246.3 kPa | 490.91
360 K, 1269.6 kPa | 490.99
360 K, 1292.9 kPa | 491.01
360 K, 1316.1 kPa | 491.18
380 K, 1759.6 kPa | 454.68
380 K, 1782.8 kPa | 454.9
380 K, 1806.1 kPa | 455.09
380 K, 1829.3 kPa | 455.25
380 K, 1852.5 kPa | 455.46
380 K, 1875.8 kPa | 455.6
380 K, 1899 kPa | 455.78
424 K, 3720.3 kPa | 289.99
424 K, 3720.4 kPa | 289.82
424 K, 3728.4 kPa | 294.73
424 K, 3737.3 kPa | 298.52

Conditions | mass density [kg/m3] | vapor or sublimation pressure
280 K | 594.08 | 133 kPa
300 K | 571.57 | 257.5 kPa
320 K | 547.03 | 456.2 kPa
340 K | 520.5 | 752 kPa
360 K | 490.55 | 1170.2 kPa
370 K | – | 1434.9 kPa
380 K | 454.55 | 1739.9 kPa and 1740.4 kPa
390 K | – | 2092.1 kPa
400 K | – | 2495.2 kPa and 2494.6 kPa
410 K | – | 2955 kPa
420 K | – | 3482.5 kPa
422 K | – | 3597.5 kPa
424 K | 288.22 | 3716.9 kPa
